Results from paper PMC6443933, “Antagonizing Retinoic Acid-Related-Orphan Receptor Gamma Activity Blocks the T Helper 17/Interleukin-17 Pathway Leading to Attenuated Pro-inflammatory Human Keratinocyte and Skin Responses” (Frontiers in Immunology, 2019).

Legend:
[1] = molecular target: T1, RORγt-LBD (Homo sapiens, UniProt P51449); assay: RORγt-LBD/GAL4 transactivation reporter gene assay in Jurkat T-cells; type: cell-based
T1 construct: luciferase reporter gene transcription is driven by the GAL4-RORγt-LBD fusion construct; expressed in transfected cells; host or cells: Jurkat cells stably carrying pGL4.35 (9 x GAL4 sites, luciferase)
T1 sequence (P51449 269-508 limits assumed): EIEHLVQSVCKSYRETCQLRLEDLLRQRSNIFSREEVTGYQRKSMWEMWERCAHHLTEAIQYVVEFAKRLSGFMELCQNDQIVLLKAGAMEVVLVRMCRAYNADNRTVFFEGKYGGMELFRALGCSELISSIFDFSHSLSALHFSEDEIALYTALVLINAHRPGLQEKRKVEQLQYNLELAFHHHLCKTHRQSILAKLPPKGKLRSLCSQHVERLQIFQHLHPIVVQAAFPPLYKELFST
Description: Selectivity against other ROR family members was assessed in a GAL4 reporter gene assay as previously described ([44]). Briefly, Jurkat cells stably expressing the pGL4.35 plasmid (Promega) containing nine GAL4 binding sites inducing the transcription of the luciferase reporter gene were transiently transfected with the human RORα, RORβ or RORγt-LBD/GAL4-DBD constructs. After 24 h post-transfection, cells were incubated with Cpd A for an additional 24 h before luciferase activity was determined using an EnVision Multilabel Plate Reader (Perkin Elmer).

[2] = system: memory human CD4+ T-cells; assay: Th17 polarization of memory CD4+ T-cells, IL-17A ELISA; type: cell-based; conditions: T-cell, 168 h, Th17 differentiation 7 days, read-out: IC50, IL-17A secretion
Description: (§1) Total, naive and memory CD4^+ T cells were isolated from Peripheral blood mononuclear cells (PBMCs) from healthy volunteers by density gradient centrifugation using Ficoll Paque (GE). Total, naive or memory CD4^+ T-cells were prepared by immunomagnetic separation using the respective CD4^+ T-cell enrichment kits resulting in untouched highly purified subsets (EasySep™, Stem Cell). Purity was assessed by flow cytometry and was between 95 and 98% for the total CD4^+ T-cells. The purity of naive (CD45RA^+CD45RO^−) and memory (CD45RA^−CD45RO^+) CD4^+T-cells ranged between 95 and 98%, respectively. For T-cell stimulation experiments, cells were treated as previously published ([44]). Briefly, T-cells were stimulated with plate-bound monoclonal antibodies against CD3 (1 μg/ml, clone OKT-3, BioXcell) and CD28 (1 μg/ml, clone CD28.2, BioLegend). For Th17 polarization assays, IL-6 (20 ng/ml), TGF-β1 (5 ng/ml), IL-1β (10 ng/ml), and IL-23 (10 ng/ml) were added. For Th1 polarization assays, IL-12 (10 ng/ml) and anti-IL-4 antibody (5 μg/ml), for Th2 polarizations, IL-4 (10 ng/ml) and anti-IFN-γ antibody (5 μg/ml) were added. For Th0 polarization assays, cells were only stimulated with CD3 and CD28 antibodies. […] Cytokine concentrations were quantified by ELISA according to the manufacturer's instructions (eBioscience or BioLegend).

[3] = system: total CD4+ T-cells; assay: Intracellular FACS of IL-17A/IFN-γ-producing CD4+ T-cells after Th17 polarization; type: cell-based, human; conditions: 3-day Th17 differentiation
Description: as §1, with “or BioLegend). […]” for “or BioLegend).”

[4] = system: CD4+ CD25 high gated PBMCs; assay: FoxP3 expression in CD4+ CD25 high T-cells under Treg inducing conditions; type: cell-based, human; conditions: 96 h Treg inducing conditions, vs DMSO
Description: PBMCs from freshly drawn heparinized blood originating from healthy volunteers were isolated by density gradient centrifugation using Ficoll Paque (GE). PBMCs (1 × 10^5/well) were incubated for 96 h in the presence of DMSO or Cpd A (1 μM) together with anti-CD3 (3 ng/ml, clone OKT-3, BioXcell), anti-CD28 (30 ng/ml, clone CD28.2, BioLegend), TGF-β1 (0.2 ng/ml, Biolegend), IL-2 (15 ng/ml, Biolegend), anti-IFN-γ antibody (5 μg/ml, Biolegend), and anti-IL-4 (5 μg/ml, Biolegend). Cells were prepared for CD4/CD25 surface staining, followed by intracellular FoxP3 staining.
For FoxP3 detection within the CD4^+ CD25 high T-cells, surface staining was performed for 20 min with FITC labeled CD4 antibody and anti-CD25 BV421 antibody (BD Bioscience). After surface staining, the cells were washed, fixed and permeabilized according to the manufacturer's instructions (eBioscience) prior to intracellular staining with APC labeled FoxP3 antibody (eBioscience). Data were acquired on a LSR Fortessa (BD Bioscience) and analyzed using FlowJo software (Tree Star). FoxP3 expression was determined in gated CD4^+ CD25 high T-cells that were treated with DMSO or with Cpd A.

[5] = system: RORγt; assay: Binding of transcription/co-factors to RORγt or RORE oligonucleotides after treatment (data not shown); type: cell-based

- inhibition of GAL4 promoter activity [1]: complete inhibition
- IC50 ([1]; luciferase, 24 h with compound): 95 nM
- IC50 [2]: 27 nM
- binding of TAZ, steroid receptor co-activators, p300, HIF-1α, Runx to RORγt or RORE oligonucleotides [5]: remained intact
Compound: Cc1ccc(C(=O)Nc2cn3ccnc3c(CN3CCN(c4noc(C(C)(C)C)n4)[C@@H](C)C3)c2C)cn1 [Cpd A, (S)-N-(8-((4-(5-(tert-butyl)-1,2,4-oxadiazol-3-yl)-3-methylpiperazin-1-yl)methyl)-7-methylimidazo[1,2-a]pyridin-6-yl)-6-methylnicotinamide]
- frequencies of IFN-γ+ cells [3]: not affected
- frequencies of IL-17A+ cells within the CD4+ T-cell population [3]: reduced
- FoxP3 expression [4]: did not result in altered FoxP3 expression
